According to US9090633B2, “Substituted 4-(arylamino) selenophenopyrimidine compounds and methods of use thereof” (KASINA LAILA INNOVA PHARMACEUTICALS PRIVATE LIMITED, priority 2010, dated 2013):

Experiments:
[1] = tested on: human lung carcinoma A549 cells; assay: MTT based cell proliferation assay, A549; settings: for IC50: A549, 72 h, read-out: Cell proliferation inhibition in A549 (Lung carcinoma), IC50
Procedure: (§1) MTT [3-(4,5-dimethylthiazol-2-yl)-2,5-diphenyltetrazolium bromide incorporation based cell proliferation assay was performed using standard procedure. […] The assay was carried out according to the instructions provided by the vendor. […] Vehicle control culture wells received only a maximum of 0.5% DMSO. Thereafter, 0.5 mg/ml of MTT reagent was added to each well and the microplate was incubated further for 4 h at 37° C. in presence of 5% CO2. Finally, the cells were solubilized by adding solubilizing solution and allowed to incubate at 37° C. overnight. After complete solubilization of the formazan crystals the absorbance was read at 540 nm in a microplate reader (BioRad, USA).
(§2) The evaluation of cell proliferation inhibitory activities of the compounds was done in two phases—(1) Screening, and (2) half-maximal inhibitory concentration (IC50) determination. In the screening phase, the cells were treated with different concentrations.

[2] = tested on: human prostate DU145 cells; assay: MTT based cell proliferation assay, DU145; settings: for IC50: DU-145, 72 h, read-out: Cell proliferation inhibition in DU145 (Prostate carcinoma), IC50
Procedure: as §1, §2

[3] = tested on: human colorectal carcinoma HT29 cells; assay: MTT based cell proliferation assay, HT29; settings: for IC50: HT-29, 72 h, read-out: Cell proliferation inhibition in HT29 (Colon carcinoma), IC50
Procedure: as §1, §2

[4] = tested on: human breast carcinoma (estrogen receptor negative) MDA-MB-231 cells; assay: MTT based cell proliferation assay, MDA-MB-231
Procedure: as §1, §2

[5] = tested on: human Hepatocellular carcinoma HepG2 cells; assay: MTT based cell proliferation assay, HepG2
Procedure: as §1, §2

[6] = tested on: human cervical carcinoma HeLa cells; assay: MTT based cell proliferation assay, HeLa
Procedure: as §1, §2

[7] = Homo sapiens, HT-29, read-out: Cell proliferation inhibition in HT29 (Colon carcinoma)
[8] = Homo sapiens, A549, read-out: Cell proliferation inhibition in A549 (Lung carcinoma)
[9] = Homo sapiens, DU-145, read-out: Cell proliferation inhibition in DU145 (Prostate carcinoma)

Compound `Brc1cc(Nc2ncnc3[se]c4c(c23)CCCC4)c(Br)s1` [Compound 6] has an IC50 ([1]; Homo sapiens) of 49 µM, an IC50 ([2]; Homo sapiens) of 42.4 µM and an inhibition at 18.868 µM [3, 7] of 15.5%.
With `Fc1ccc(Nc2ncnc3cc(-c4ccccc4)[se]c23)cc1Cl` [Compound 29, (3-chloro-4-fluorophenyl)(6-phenylselenopheno[2,3-e]pyrimidin-4-yl)amine] the inhibition at 30 µM [1, 8] was 45.5%, the inhibition at 25 µM [2, 9] was 30.8% and the inhibition at 25 µM [3, 7] was 43.1%.
With `O=C1CCc2c([se]c3ncnc(Nc4ccc(F)c(Cl)c4)c23)C1` [Compound 26, 4-[(3-chloro-4-fluorophenyl)amino]-5,6,8-trihydrobenzo[2,1-b]pyrimidino[5,4-d]selenophen-7-one] the inhibition at 23.148 µM [1, 8] was 17.5%, the inhibition at 23.148 µM [2, 9] was 65.1% and the inhibition at 23.148 µM [3, 7] was 30.9%.
For `CN(c1ccc(Cl)cc1)c1ncnc2[se]c3c(c12)CCNC3` [Compound 33], the “more potent than Gefitinib (Iressa) in inhibiting tumor cells proliferation” value ([1]; A549, from IC50 values) was 101%, the IC50 ([1]; Homo sapiens) was 28.4 µM and the “more potent than Gefitinib (Iressa) in inhibiting tumor cells proliferation” value ([2]; DU145, from IC50 values) was 6.8%. For the same compound, the IC50 ([2]; Homo sapiens) was 29.5 µM, the “more potent than Gefitinib (Iressa) in inhibiting tumor cells proliferation” value ([3]; HT29, from IC50 values) was 257.8% and the IC50 ([3]; Homo sapiens) was 13.1 µM. For the same compound, the IC50 ([4]; Homo sapiens, MDA-MB-231, 72 h, read-out: Cell proliferation inhibition (IC50) in MDA-MB-231 (Breast Carcinoma)) was 20.4 µM, the “more potent than Gefitinib (Iressa) in inhibiting tumor cells proliferation” value ([4]; MDA-MB-231, from IC50 values) was 122% and the “more potent than Gefitinib (Iressa) in inhibiting tumor cells proliferation” value ([5]; HepG2, from IC50 values) was 241%. For the same compound, the IC50 ([5]; Homo sapiens, HepG2, 72 h, read-out: Cell proliferation inhibition (IC50) in HepG2 (Hepatocellular Carcinoma)) was 10.4 µM, the IC50 ([6]; Homo sapiens, 72 h, read-out: Cell proliferation inhibition (IC50) in HeLa (Cervical Carcinoma)) was 23.1 µM and the “more potent than Gefitinib (Iressa) in inhibiting tumor cells proliferation” value ([6]; from IC50 values) was 117%.
`CS(=O)(=O)N1CCc2c([se]c3ncnc(Nc4ccc(F)c(Cl)c4)c23)C1` [Compound 19, 4[(3-chloro-4-fluorophenyl)amino]-7-(methylsulfonyl)-5,6,7,8-tetrahydro-pyrimidino[5′,4′-5,4]selenopheno[2,3-c]pyridine] showed an inhibition at 25 µM [1, 8] of 27.4%, an inhibition at 25 µM [2, 9] of 29.2% and an inhibition at 25 µM [3, 7] of 3.07%.
`Clc1ccc(Nc2ncnc3[se]c4c(c23)CCNC4)cc1Cl` [Compound 22, (3,4-dichlorophenyl)-5,6,7,8-tetrahydropyrimidino[5′,6′-5,4]selenopheno[2,3-c]pyridin-4-ylamine] gave an inhibition at 22.935 µM [1, 8] of 16.7%, an inhibition at 22.935 µM [2, 9] of 36.6% and an inhibition at 22.935 µM [3, 7] of 28.4%.
With “ethyl 4-[(3-chloro-4-fluorophenyl)amino]-5-methylthioselenopheno[3,4-d]pyrimidine-7-carboxylate [Compound 32]” the “Cell proliferation inhibition in A549 (Lung carcinoma)” value ([1]; at 25 μM) was 26.1% at 25 μM, the “Cell proliferation inhibition in DU145 (Prostate carcinoma)” value ([2]; at 25 μM) was 9.75% at 25 μM and the “Cell proliferation inhibition in HT29 (Colon carcinoma)” value ([3]; at 25 μM) was 12.97% at 25 μM.
In the case of `Fc1ccc(Nc2ncnc3[se]cc(-c4ccccc4)c23)cc1Cl` [Compound 14, (3-chloro-4-fluorophenyl)(5-phenylselenopheno[3,2-e]pyrimidin-4-yl]amine], the IC50 ([1]; Homo sapiens) is reported as 121 µM and the IC50 ([2]; Homo sapiens) is reported as 105 µM.
`CC(C)(C)c1cc(Nc2ncnc3[se]c4c(c23)CCCC4)c(C(N)=O)s1` [Compound 7, (5-tert-butyl)-3-(5,6,7,8-tetrahydrobenzo[1,2-b]pyrimidino[5,6-d]selenophen-4-ylamino)thiophene-2-carboxamide] gave an IC50 ([3]; Homo sapiens) of 9.3 µM.
Work on `NS(=O)(=O)c1ccc(Nc2ncnc3[se]c4c(c23)CCCC4)cc1` [Compound 12, 4-(5,6,7,8-tetrahydrobenzo[1,2-b]pyrimidino[5,6-d]selenophen-4-ylamino)benzenesulfonamide] yielded an inhibition at 24.449 µM [3, 7] of 15.6%.
In the case of `CC(C)(C)c1c[se]c2ncnc(Nc3ccc(F)c(Cl)c3)c12` [Compound 13, [5-(tert-butyl)selenopheno[3,2-e]pyrimidin-4-yl](3-chloro-4-fluorophenyl)amine], the IC50 ([1]; Homo sapiens) is reported as 15 µM, the IC50 ([2]; Homo sapiens) is reported as 41.6 µM and the IC50 ([3]; Homo sapiens) is reported as 37.9 µM.
`COC(=O)c1cc(Nc2ncnc3[se]c4c(c23)CCNC4)c(C)s1` [Compound 23, methyl 5-methyl-4-(5,6,7,8-tetrahydropyrimidino[5′,6′-5,4]selenopheno[2,3-c]pyridin-4-ylamino)thiophene-2-carboxylate] was tested, and the inhibition at 22.472 µM [1, 8] was 8.64%, the inhibition at 22.472 µM [2, 9] was 5.08% and the inhibition at 22.472 µM [3, 7] was 15.4%.
In the case of `Cc1[se]c2ncnc(Nc3ccc(F)c(Cl)c3)c2c1-c1ccccc1` [Compound 16], the IC50 ([1]; Homo sapiens) is reported as 44.1 µM, the IC50 ([2]; Homo sapiens) is reported as 111 µM and the inhibition at 66.079 µM [3, 7] is reported as 38.6%.
In the case of `Fc1ccc(Nc2ncnc3[se]c4c(c23)CCCC4)cc1Cl` [Compound 1, (3-chloro-4-fluorophenyl)-5,6,7,8-tetrahydrobenzo[1,2-b]pyrimidino[5,6-d]selenophen-4-ylamine], the IC50 ([2]; Homo sapiens) is reported as 8.37 µM.
Compound `Clc1cc(Nc2ncnc3[se]c4c(c23)CCCC4)nc(Cl)n1` [Compound 4, (2,6-dichloropyrimidin-4-yl)-5,6,7,8-tetrahydrobenzo[1,2-b]pyrimidino[5,6-d]selenophen-4-ylamine] has an IC50 ([1]; Homo sapiens) of 42.3 µM, an IC50 ([2]; Homo sapiens) of 37.1 µM and an IC50 ([3]; Homo sapiens) of 162 µM.
In the case of `Brc1cncc(Nc2ncnc3[se]c4c(c23)CCCC4)c1` [Compound 2, (5-bromo(3-pyridyl))-5,6,7,8-tetrahydrobenzo[1,2-b]pyrimidino[5,6-d]selenophen-4-ylamine], the inhibition at 22.421 µM [1, 8] is reported as 20.7%, the inhibition at 22.421 µM [2, 9] is reported as 13.1% and the inhibition at 22.421 µM [3, 7] is reported as 11.1%.
Work on `Cc1c(C(=O)NCCCl)[se]c2ncnc(Nc3ccc(F)c(Cl)c3)c12` [Compound 25] yielded an inhibition at 19.92 µM [1, 8] of 0.19%, an IC50 ([2]; Homo sapiens) of 8.51 µM and an IC50 ([3]; Homo sapiens) of 9.24 µM.
Compound `Clc1cc(Nc2ncnc3[se]c4c(c23)CCCC4)cc(Cl)n1` [Compound 3, (2,6-dichloropyridin-4-yl)-5,6,7,8-tetrahydrobenzo[1,2-b]pyrimidino[5,6-d]selenophen-4-ylamine] has an inhibition at 22.935 µM [1, 8] of 15.6%, an inhibition at 22.935 µM [2, 9] of 18.3% and an inhibition at 22.935 µM [3, 7] of 13.8%.
Compound `Brc1cccc(Nc2ncnc3[se]c4c(c23)CCNC4)c1` [Compound 20, (3-bromophenyl)-5,6,7,8-tetrahydropyrimidino[5′,6′-5,4]selenopheno[2,3-c]pyridin-4-ylamine] has an inhibition at 22.421 µM [1, 8] of 0.45%, an inhibition at 22.421 µM [2, 9] of 13.4% and an inhibition at 22.421 µM [3, 7] of 8.96%.
For `c1cnc(Nc2ncnc3[se]c4c(c23)CCCC4)cn1` [Compound 5, pyrazin-2-yl-5,6,7,8-tetrahydrobenzo[1,2-b]pyrimidino[5,6-d]selenophen-4-ylamine], the IC50 ([2]; Homo sapiens) was 16.4 µM.
Work on `Fc1ccc(Nc2ncnc3c2[se]c2ccccc23)cc1Cl` [Compound 30, benzo[d]pyrimidino[5,6-b]selenophen-4-yl(3-chloro-4-fluorophenyl)amine] yielded an IC50 ([1]; Homo sapiens) of 21.8 µM, an IC50 ([2]; Homo sapiens) of 26.8 µM and an inhibition at 25 µM [3, 7] of 38.1%.
For `C#Cc1cccc(Nc2ncnc3[se]c4c(c23)CCNC4)c1` [Compound 21, (3-ethynylphenyl)-5,6,7,8-tetrahydropyrimidino[5′,6′-5,4]selenopheno[2,3-c]pyridine-4-ylamine], the inhibition at 25.575 µM [1, 8] was 11.6%, the inhibition at 25.575 µM [2, 9] was 12.9% and the inhibition at 25.575 µM [3, 7] was 4.66%.
`CC(C)(C)c1cc2ncnc(Nc3ccc(F)c(Cl)c3)c2[se]1` [Compound 28, [6-(tert-butyl)selenopheno[2,3-e]pyrimidin-4-yl](3-chloro-4-fluorophenyl)amine] showed an IC50 ([1]; Homo sapiens) of 109 µM, an IC50 ([2]; Homo sapiens) of 82.7 µM and an IC50 ([3]; Homo sapiens) of 71 µM.
Work on `Fc1ccc(Nc2ncnc3c4c([se]c23)CCCC4)cc1Cl` [Compound 27, (3-chloro-4-fluorophenyl)-6,7,8,9-tetrahydrobenzo[1,2-d]pyrimidino[5,6-b]selenophen-4-ylamine] yielded an IC50 ([1]; Homo sapiens) of 33.5 µM, an IC50 ([2]; Homo sapiens) of 11.4 µM and an IC50 ([3]; Homo sapiens) of 117 µM.
`Cc1c(C(=O)O)[se]c2ncnc(Nc3ccc(F)c(Cl)c3)c12` [Compound 15, 4-[(3-chloro-4-fluorophenyl)amino]-5-methylselenopheno[2,3-d]pyrimidine-6-carboxylic acid] was tested, and the inhibition at 240.539 µM [1, 8] was 25%, the inhibition at 240.539 µM [2, 9] was 41.2% and the inhibition at 240.539 µM [3, 7] was 18.9%.
In the case of `Fc1ccc(Nc2ncnc3[se]c4c(c23)CCNC4)cc1Cl` [Compound 18, (3-chloro-4-fluorophenyl)-5,6,7,8-tetrahydropyrimidino[5′,6′-5,4]selenopheno[2,3-c]pyridine-4-ylamine], the IC50 ([1]; Homo sapiens) is reported as 82.6 µM, the IC50 ([2]; Homo sapiens) is reported as 42.5 µM and the IC50 ([3]; Homo sapiens) is reported as 39.1 µM.
With `Cc1c(C(N)=O)[se]c2ncnc(Nc3ccc(F)c(Cl)c3)c12` [Compound 17, 4-[(3-chloro-4-fluorophenyl)amino]-5-methylselenopheno[2,3-d]pyrimidine-6-carboxamide] the inhibition at 25 µM [1, 8] was 21.4% and the inhibition at 25 µM [2, 9] was 44.4%.
In the case of `Fc1ccc(Nc2ncnc3c2[se]c2ncccc23)cc1Cl` [Compound 31, (3-chloro-4-fluorophenyl)pyrimidino[4′,5′-5,4]selenopheno[2,3-b]pyridin-4-ylamine], the inhibition at 25 µM [1, 8] is reported as 30.2%, the inhibition at 25 µM [2, 9] is reported as 22% and the inhibition at 25 µM [3, 7] is reported as 5.21%.
